Measured values as given in patent US11214805B2, “Targeted nanocarriers for the administration of immunosuppressive agents” (MUSC FOUNDATION FOR RESEARCH DEVELOPMENT, priority 2014, dated 2022).

Assays:
[1] = tested on: transplanted tracheas (chronic rejection); details: graft stored 4 hrs at 4° C. in UW solution with additive; harvested 28 days after transplantation
From the text: Twenty eight days later transplanted tracheas were harvested and assessed for the degree of chronic rejection.

MHC I = test: Western blot of MHC I in lysates of HUVEC treated with pro-inflammatory cytokine cocktail; format: cell-based, Human; details: IL-1β, INFγ, TNFα cocktail; 10 or 100 ng/mL
Procedure: Cells were then lysed using mammalian protein extraction reagent (Pierce, Ill.) supplemented with Halt Protease and Phosphatase Inhibitor Cocktails. Lysates were centrifuged at 10,000 rpm for 15 minutes. All western blot reagents were purchased from Bio-Rad (CA) unless specified. The protein concentration of each lysate was determined via Bradford calorimetric Assay (Thermo Scientific, PA; 232225), and 1.6 μg of protein from each whole cell lysate was added to a 4-20% precast gel and subjected to SDS-page electrophoresis. Protein was transferred to a PVDF membrane by semi-dry transfer, where it was stained with anti-MHC class I antibody (W6) and blocked overnight with TBS-T (Tris-Buffered Saline-Tween 20) containing 5% nonfat dry milk and 0.5% BSA. An appropriate HRP-conjugated secondary antibody was added to fresh block solution at a 1:1000 dilution to incubate for 1 hour at room temperature. The protein band was then detected by enhanced chemiluminescence (ECL).

## CO[C@H]1C[C@@H]2CC[C@@H](C)[C@@](O)(O2)C(=O)C(=O)N2CCCC[C@H]2C(=O)O[C@H]([C@H](C)C[C@@H]2CC[C@@H](O)[C@H](OC)C2)CC(=O)[C@H](C)/C=C(\C)[C@@H](O)[C@@H](OC)C(=O)[C@H](C)C[C@H](C)/C=C/C=C/C=C/1C [free rapamycin, rapamycin]
[1]
  degree of chronic rejection (fibrosis, inflammation, epithelium) as compared to UW alone: reduced fibrosis, inflammation and preserved normal pseudo stratified respiratory epithelium
MHC I
  level of MHC I expression in HUVEC: able to down regulate
